# Test system: neutrophils
# Test: Neutrophil calcium flux assay (5-OXO-ETE-stimulated, Indo-1 fluorescence)
# Assay type: cell-based
# Conditions: Neutrophil, 5-OXO-ETE-stimulated calcium flux
# Method: After isolation, neutrophils were resuspended in PBS without calcium and Magnesium (PBS −/−) at a concentration of 5×10^6 cells/ml. 2ul of Indo-1 (1 mM) were added per ml of cells. After incubation at 37° C. for 30 minutes, cells were washed twice in PBS −/− and resuspended at 5×10^6 cells/ml in assay buffer (HBSS 1× with calcium and magnesium and […]). In a 96-well Black optical clear bottom plate 100 μL of neutrophil were dispensed to each well. After incubation at 37° C. for 5 minutes, 50 μL of assay buffer or 3× antagonist were added and incubated for 5 min in a Tecan Spark plate reader (Tecan, Morrisville, NC). Baseline was measured for 30 sec (wavelength setup: excitation: 331 nm and emission:410 nm). When baseline is stable, 50p of 5-OXO-ETE at 200 nM (4×) or HBSS was added to appropriate wells. Fluorescence was measured every 5 seconds for 30 cycles. Results are expressed as Net fluorescence (FLU minus Background and injection peak). All data were analyzed using GraphPad Prism version 9 for Windows (GraphPad, San Diego, CA).
row,SMILES,IC50 [nM]
1,C[C@H](CC(=O)O)CC(=O)c1c(CCCCCNc2cccc(Cl)c2)n(C)c2ccc(Cl)cc12 [Compound I-79],< 100
2,C[C@H](CC(=O)O)CC(=O)c1c(CCCCC(=O)Nc2cccc(Cl)c2)n(C)c2ccc(Cl)cc12 [Compound I-80],> 300
3,C[C@H](CC(=O)O)CC(=O)c1c(CCCCCCc2cnccn2)n(C)c2ccc(Cl)cc12 [Compound I-81],100 to 300
4,C[C@H](CC(=O)O)CC(=O)c1c(CCCCCNc2ncccn2)n(C)c2ccc(Cl)cc12 [Compound I-82],100 to 300
5,C[C@@H](CC(=O)c1c(CCCCCCc2cccc(Cl)c2)n(C)c2ncc(Cl)cc12)Cc1nnn[nH]1 [Compound I-84],< 100
6,COc1ccc2c(c1)c(C(=O)C[C@H](C)CC(=O)O)c(CCCCCCc1cccc(Cl)c1)n2C [Compound I-96],< 100
7,C[C@H](CC(=O)O)CC(=O)c1c(CCCCCCc2cccc(Cl)c2)n(C)c2ccc(OC(F)(F)F)cc12 [Compound I-97],< 100
8,C[C@H](CC(=O)O)CC(=O)c1c(CCCCOCc2ccccc2)n(C)c2ncc(Cl)cc12 [Compound I-99],100 to 300
9,C[C@H](CC(=O)O)CC(=O)c1c(CCCCOCc2cccc(F)c2)n(C)c2ncc(Cl)cc12 [Compound I-100],100 to 300
10,C[C@H](CC(=O)O)CC(=O)c1c(CCCCOCc2ccccc2)n(C)c2ncccc12 [Compound I-101],> 300
11,COc1cnc2c(c1)c(C(=O)CC(C)CC(=O)O)c(CCCCOCc1ccccc1)n2C (stereo not shown) [Compound I-103],> 300
12,C[C@@H](CC(=O)O)CC(=O)c1c(CCCCOCc2ccccc2)n(C)c2ncc(C#N)cc12 [Compound I-106],> 300
13,C[C@H](CC(=O)O)CC(=O)c1c(CCCCC[C@@H](O)c2cccc(Cl)c2)n(C)c2ncc(Cl)cc12 [Compound I-107],< 100
14,C[C@H](CC(=O)O)CC(=O)c1c(CCCCOCC23CC(C#N)(C2)C3)n(C)c2ccc(Cl)cc12 [Compound I-108],100 to 300
15,C[C@H](CC(=O)O)CC(=O)c1c(CCCCC[C@H](O)c2cccc(Cl)c2)n(C)c2ncc(Cl)cc12 [Compound I-110],< 100
16,CC(CC(=O)O)CC(=O)c1c(CCCCCCC#CCC(F)(F)F)n(C)c2ccc(Cl)cc12 (stereo not shown) [Compound I-111],100 to 300
17,C[C@H](CC(=O)O)CC(=O)c1c(CCCCCCC#CC(C)(C)C)n(C)c2ccc(Cl)cc12 [Compound I-112],< 100
18,C[C@H](CC(=O)O)CC(=O)c1c(CCCCCCC#CC2CCC2)n(C)c2ccc(Cl)cc12 [Compound I-113],> 300
19,CC(C)C#CCCCCCc1c(C(=O)C[C@H](C)CC(=O)O)c2cc(Cl)ccc2n1C [Compound I-114],> 300
20,CCC#CCCCCCCc1c(C(=O)C[C@H](C)CC(=O)O)c2cc(Cl)ccc2n1C [Compound I-116],< 100
21,C[C@H](CC(=O)O)CC(=O)c1c(CCCCC#Cc2ccccc2)n(C)c2ccc(Cl)cc12 [Compound I-117],< 100
22,Cn1c(CCCCCCc2cccc(Cl)c2)c(C(=O)N2CC[C@H](C(=O)O)C2)c2cc(Cl)ccc21 [Compound I-118],< 100
23,Cn1c(CCCCCCc2cccc(Cl)c2)c(C(=O)N2CCC[C@@H]2CC(=O)O)c2cc(Cl)ccc21 [Compound I-119],> 300

row,SMILES,IC50 [nM]
1,Cn1c(CCCCCCc2cccc(Cl)c2)c(C(=O)N2CC[C@@H](C(=O)O)C2)c2cc(Cl)ccc21 [Compound I-120],100 to 300
2,Cn1c(CCCCCCc2cccc(Cl)c2)c(C(=O)N2CCC[C@H]2CC(=O)O)c2cc(Cl)ccc21 [Compound I-121],> 300
3,C[C@H](CC(=O)O)CC(=O)c1c(CCCCCN(C)c2ncccn2)n(C)c2ccc(Cl)cc12 [Compound I-124],100 to 300
4,CC(=O)NCCCCCc1c(C(=O)C[C@H](C)CC(=O)O)c2cc(Cl)ccc2n1C [Compound I-126],> 300
5,C[C@H](CC(=O)O)CC(=O)c1c(CCCCCNC(=O)C2CC2)n(C)c2ccc(Cl)cc12 [Compound I-127],> 300
6,C[C@H](CC(=O)O)CC(=O)c1c(CCCCCNc2ccccn2)n(C)c2ccc(Cl)cc12 [Compound I-128],> 300
7,C[C@H](CC(=O)O)CC(=O)c1c(CCCCCNc2cnccn2)n(C)c2ccc(Cl)cc12 [Compound I-129],> 300
8,C[C@H](CC(=O)O)CC(=O)c1c(CCCCCOc2ncccn2)n(C)c2ccc(Cl)cc12 [Compound I-130],> 300
9,C[C@H](CC(=O)O)CC(=O)c1c(CCCCCOc2ccccn2)n(C)c2ccc(Cl)cc12 [Compound I-131],> 300
10,C[C@H](CC(=O)O)CC(=O)c1c(CCCCCOc2cnccn2)n(C)c2ccc(Cl)cc12 [Compound I-132],> 300
11,COC(=O)NCCCCCc1c(C(=O)CC(C)CC(=O)O)c2cc(Cl)ccc2n1C (stereo not shown) [Compound I-134],> 300
12,C[C@H](CC(=O)O)CC(=O)c1c(CCOCCNc2cccnc2)n(C)c2ccc(Cl)cc12 [Compound I-137],> 300
13,CC(CC(=O)O)CC(=O)c1c(CCOCCNc2cccnc2)n(C)c2ncc(Cl)cc12 (stereo not shown) [Compound I-139],> 300
14,C[C@H](CC(=O)O)CC(=O)c1c(CCCCCNc2cccnc2)n(C)c2ncc(Cl)cc12 [Compound I-140],> 300
15,C[C@H](CC(=O)O)CC(=O)c1c(CCCCCNc2cccnc2)n(C)c2ccc(Cl)cc12 [Compound I-141],> 300
16,C[C@H](CC(=O)O)CC(=O)c1c(CCOCCNc2cccc(Cl)c2)n(C)c2ccc(Cl)cc12 [Compound I-142],< 100
17,C[C@H](CC(=O)O)CC(=O)c1c(CCCCCCc2cccc(Cl)c2)[nH]c2ccc(Cl)cc12 [Compound I-144],< 100
18,C[C@H](CC(=O)O)CC(=O)c1c(CCCCc2nc3cc(Cl)ccc3o2)n(C)c2ccc(Cl)cc12 [Compound I-145],> 300
19,C[C@H](CC(=O)O)CC(=O)c1c(CCCCC(=O)Nc2cc(Cl)ccc2O)n(C)c2ccc(Cl)cc12 [Compound I-146],100 to 300
20,Cn1c(CCCCCCc2cccc(Cl)c2)c(C(=O)N2CC[C@H](C(=O)O)C2)c2cc(Cl)cnc21 [Compound I-147],> 300
21,Cn1c(CCCCCNc2cccc(Cl)c2)c(C(=O)N2CC[C@H](C(=O)O)C2)c2cc(Cl)cnc21 [Compound I-148],> 300
22,Cn1c(CCCCCCc2cccc(Cl)c2)c(C(=O)N2CC[C@H](c3nnn[nH]3)C2)c2cc(Cl)cnc21 [Compound I-149],< 100
23,CC(CCC(=O)c1c(CCCCCCc2cccc(Cl)c2)n(C)c2ccc(Cl)cc12)C(=O)O (stereo not shown) [Compound I-150],> 300

row,SMILES,IC50 [nM]
1,Cn1c(CCCCCCc2cccc(Cl)c2)c(C(=O)N2CC(C(=O)O)C2)c2cc(Cl)ccc21 [Compound I-151],100 to 300
2,Cn1c(CCCCCCc2cccc(Cl)c2)c(C(=O)N2CC(CC(=O)O)C2)c2cc(Cl)ccc21 [Compound I-152],> 300
3,Cn1c(CCCCCCc2cccc(Cl)c2)c(C(=O)N2CC(C(=O)O)C2)c2cc(Cl)cnc21 [Compound I-153],> 300
4,Cn1c(CCCCCCc2cccc(Cl)c2)c(C(=O)N2CC(CC(=O)O)C2)c2cc(Cl)cnc21 [Compound I-154],> 300
5,Cn1c(CCCCCCc2cccc(Cl)c2)c(C(=O)N2CCC[C@H](C(=O)O)C2)c2cc(Cl)ccc21 [Compound I-155],100 to 300
6,Cn1c(CCCCCCc2cccc(Cl)c2)c(C(=O)N2CCC[C@@H](C(=O)O)C2)c2cc(Cl)ccc21 [Compound I-156],> 300
7,Cn1c(CCCCCCc2cccc(Cl)c2)c(C(=O)N2CCC(C)(C(=O)O)C2)c2cc(Cl)ccc21 (stereo not shown) [Compound I-157],> 300
8,Cn1ccc(C(=O)N2CC[C@H](C(=O)O)C2)c1CCCCOCc1cccc(Cl)c1 [Compound I-162],> 300
9,Cn1cc(-c2ccccc2Cl)c(C(=O)N2CC[C@H](C(=O)O)C2)c1CCCCOCc1cccc(Cl)c1 [Compound I-166],> 300
10,Cn1cc(-c2cccc(Cl)c2)c(C(=O)N2CC[C@H](C(=O)O)C2)c1CCCCOCc1cccc(Cl)c1 [Compound I-167],> 300
11,Cn1c(-c2ccccc2Cl)cc(C(=O)N2CC[C@H](C(=O)O)C2)c1CCCCOCc1cccc(Cl)c1 [Compound I-171],> 300
12,Cn1c(CCCCCC(O)c2cccc(Cl)c2)c(C(=O)N2CC[C@H](C(=O)O)C2)c2cc(Cl)cnc21 (stereo partly shown) [Compound I-173],> 300
13,Cn1c(CCCOCCc2cccc(Cl)c2)c(C(=O)N2CC[C@H](C(=O)O)C2)c2cc(Cl)cnc21 [Compound I-174],> 300
14,Cn1c(CCCCOCc2cccc(Cl)c2)c(C(=O)N2CC[C@H](C(=O)O)C2)c2cc(Cl)cnc21 [Compound I-175],> 300
15,C[C@H](CC(=O)O)CC(=O)c1c(CCCCC#Cc2cccnc2)n(C)c2ccc(Cl)cc12 [Compound I-176],< 100
16,Cn1c(CCCCOCc2ccccc2)c(C(=O)N2CC[C@H](C(=O)O)C2)c2cc(C#N)cnc21 [Compound I-178],> 300
17,Cn1c(CCCCOCc2cccc(Cl)c2)c(C(=O)N2CC[C@H](C(=O)O)C2)c2cc(C#N)cnc21 [Compound I-179],> 300
18,Cn1c(CCCCOCc2cccc(Cl)c2)c(C(=O)N2CCC[C@H](C(=O)O)C2)c2cc(C#N)cnc21 [Compound I-181],> 300
19,Cn1c(CCCCOCc2cccc(Cl)c2)c(C(=O)N2CC[C@H](C(=O)O)C2)c2cc(C(F)(F)F)cnc21 [Compound I-183],> 300
20,Cn1c(CCCCOCc2cccc(Cl)c2)c(C(=O)N2CC[C@H](c3nnn[nH]3)C2)c2cc(C(F)(F)F)cnc21 [Compound I-184],> 300
21,Cn1c(CCCCOCc2cccc(Cl)c2)c(C(=O)N2CC[C@H](C(=O)O)C2)c2cc(C(F)(F)F)ccc21 [Compound I-187],100 to 300

# Source: patent US20250154145A1, “OXER1 ANTAGONISTS AND USES THEREOF” (Fairhaven Pharmaceuticals Ins., priority 2021, published 2025)
